Measurements: article PMC8983201 (Evidence-based Complementary and Alternative Medicine : eCAM, 2022)

Legend:
Type in all cases: cell-based
[1] = tested on: tested cancer cell lines; experiment: RRA cytotoxicity, summary over the panel of tested cancer cell lines; settings: all cell lines tested (Table 3 panel)
Experimental: (§1) 18 cancer cell lines and normal hepatocyte AML12 were used in the present study. Cancer cell lines such as drug-sensitive leukemia CCRF-CEM and multidrug-resistant P-glycoprotein-overexpressing subline CEM/ADR5000 cells, breast cancer MDA-MB-231-pcDNA cells and its resistant subline MDA-MB-231-BCRP clone 23 cells, colon cancer HCT116 p53^+/+ cells and its knockout clone HCT116 p53^−/−, glioblastoma U87MG cells, and its resistant subline U87MG.ΔEGFR [7, 23, 24]. The maintenance of HepG2 cells and AML12 hepatocytes was also published. The CC531 rat colon carcinoma cells, B16-F1, B16-F10, A2058, SK-Mel505, MaMel-80a, MV3, SkMel-28, and Mel-2A, were previously reported.
(§2) Different types of human cancer cell lines were used in this study. The resazurin reduction assay (RRA) as previously described with similar experimental conditions to those reported earlier was used to measure the cell cytotoxicity. Fluorescence was measured on an Infinite M2000 Pro™ plate reader (Tecan, Germany) using an excitation wavelength of 544 nm and an emission wavelength of 590 nm. The viability was determined based on a comparison with untreated cells. The values representing the sample's concentrations required to inhibit 50% of cell proliferation (IC50) were calculated from a calibration curve by linear regression using Microsoft Excel 2013 [33, 34].

[2] = tested on: SKMel-28 (BRAF-V600E homozygous mutant); experiment: RRA cytotoxicity, SKMel-28; settings: Homo sapiens, SK-MEL-28; SKMel-28, compounds
Experimental: as §1, §2

[3] = tested on: B16-F1 murine melanoma; experiment: RRA cytotoxicity, B16-F1; settings: Mus musculus; B16-F1, compounds
Experimental: as §1, §2

[4] = tested on: SKMel-505 BRAF wild-type melanoma cells; experiment: RRA cytotoxicity, SKMel-505; settings: Homo sapiens; SKMel-505, compounds
Experimental: as §1, §2

[5] = tested on: glioblastoma U87MG cells; experiment: RRA cytotoxicity, U87MG; settings: Homo sapiens, U-87 MG, doxorubicin
Experimental: as §1, §2

[6] = tested on: CCRF-CEM leukemia cells; experiment: Resazurin reduction assay (RRA) cytotoxicity, CCRF-CEM; settings: Homo sapiens, doxorubicin
Experimental: as §1, §2

[7] = tested on: CC531 rat colon carcinoma cells; experiment: RRA cytotoxicity, CC531; settings: Colon carcinoma cell, CC531, compounds
Experimental: as §1, §2

[8] = tested on: Mel-2a (BRAF-V600E heterozygous mutant); experiment: RRA cytotoxicity, Mel-2a; settings: Homo sapiens, compounds
Experimental: as §1, §2

[9] = tested on: B16-F10 murine melanoma; experiment: RRA cytotoxicity, B16-F10; settings: Mus musculus; B16-F10, compounds
Experimental: as §1, §2

[10] = tested on: MaMel-80a (BRAF-V600E homozygous mutant melanoma); experiment: RRA cytotoxicity, MaMel-80a; settings: Homo sapiens, compounds
Experimental: as §1, §2

[11] = tested on: normal AML12 hepatocytes; experiment: RRA cytotoxicity, normal AML12 hepatocytes; settings: Mus musculus; AML12, doxorubicin column of Table 2
Experimental: as §1, §2

[12] = tested on: breast cancer MDA-MB-231-pcDNA cells; experiment: RRA cytotoxicity, MDA-MB-231-pcDNA; settings: Homo sapiens, doxorubicin
Experimental: as §1, §2

[13] = tested on: MV3 (BRAF wild type); experiment: RRA cytotoxicity, MV3; settings: Homo sapiens; MV3, compounds
Experimental: as §1, §2

[14] = tested on: HepG2 hepatocarcinoma cells; experiment: RRA cytotoxicity, HepG2; settings: Homo sapiens; HepG2, doxorubicin column of Table 2
Experimental: The resazurin reduction assay (RRA) as previously described [24, 32] with similar experimental conditions to those reported earlier [26–30] was used to measure the cell cytotoxicity. Fluorescence was measured on an Infinite M2000 Pro™ plate reader (Tecan, Germany) using an excitation wavelength of 544 nm and an emission wavelength of 590 nm. The viability was determined based on a comparison with untreated cells.

[15] = tested on: A2058 (BRAF-V600E heterozygous mutant); experiment: RRA cytotoxicity, A2058; settings: Homo sapiens; A2058, compounds
Experimental: as §1, §2

[16] = tested on: HCT116 p53−/− cells; experiment: RRA cytotoxicity, HCT116 (p53−/−); settings: Homo sapiens, HCT-116, doxorubicin
Experimental: as §1, §2

[17] = tested on: U87MG.ΔEGFR cells; experiment: RRA cytotoxicity, U87MG.ΔEGFR; settings: Homo sapiens, doxorubicin
Experimental: as §1, §2

[18] = tested on: MDA-MB-231-BCRP clone 23 cells; experiment: RRA cytotoxicity, MDA-MB-231-BCRP; settings: Homo sapiens, doxorubicin
Experimental: as §1, §2

Row | Compound | IC50 [1] [µM] | IC50 [2] [µM] | IC50 [3] [µM] | IC50 [4] [µM] | IC50 [5] [µM] | IC50 [6] [µM] | IC50 [7] [µM] | IC50 [8] [µM] | IC50 [9] [µM] | IC50 [10] [µM] | IC50 [11] [µM] | IC50 [12] [µM] | IC50 [13] [µM] | IC50 [14] [µM] | IC50 [15] [µM] | IC50 [16] [µM] | IC50 [17] [µM] | IC50 [18] [µM]
1 | CC(CCC1(O)OC2CC3C4CC=C5CC(OC6OC(CO)C(O)C(OC7OC(CO)C(O)C(O)C7O)C6OC6OC(C)C(O)C(O)C6O)CCC5(C)C4CCC3(C)C2C1C)COC1OC(CO)C(O)C(O)C1O [Compound 3, (25R)-26-O-(β-D-galactopyranosyl)-furost-5-ene-3β, 22α, 26-trihydroxy-3-O-β-D-glucopyranosyl-(1 ⟶ 2)-[α-L-rhamnopyranosyl-(1 ⟶ 3)]-β-D-glucopyranoside] | > 100 | – | – | – | – | – | – | – | – | – | – | – | – | – | – | – | – | –
2 | COc1cccc2c1C(=O)c1c(O)c3c(c(O)c1C2=O)C[C@@](O)(C(=O)CO)C[C@@H]3O[C@H]1C[C@H](N)[C@H](O)[C@H](C)O1 [Doxorubicin, reference compound] | – | 2.14 ± 0.12 | 0.22 ± 0.01 | 9.39 ± 1.01 | 0.26 ± 0.03 | 0.02 | 0.44 ± 0.23 | 6.63 ± 0.41 | 0.24 ± 0.03 | 8.66 ± 0.56 | 52.9 ± 4.09 | 0.13 ± 0.01 | 7.09 ± 0.59 | 4.56 ± 0.48 | 0.29 ± 0.04 | 1.78 ± 0.08 | 0.98 ± 0.07 | 0.79 ± 0.08
3 | C[C@@H]1CC[C@@]2(OC1)O[C@H]1C[C@H]3[C@@H]4CC=C5C[C@@H](O[C@@H]6O[C@H](CO)[C@@H](O[C@@H]7O[C@H](CO)[C@@H](O)[C@H](O)[C@H]7O)[C@H](O)[C@H]6O[C@@H]6O[C@@H](C)[C@H](O)[C@@H](O)[C@H]6O)CC[C@]5(C)[C@H]4CC[C@]3(C)[C@H]1[C@@H]2C [Compound 7, deltonin] | > 100 | – | – | – | – | – | – | – | – | – | – | – | – | – | – | – | – | –
4 | CC(CCC1(O)OC2CC3C4CC=C5CC(OC6OC(CO)C(O)C(O)C6O)CCC5(C)C4CCC3(C)C2C1C)COC1OC(CO)C(O)C(O)C1O [Compound 8, 26-O-β-D-glucopyranosyl-(22R,25R)-3β, 22, 26-trihydroxyfurost-5-ene-3-O-β-D-glucopyranoside] | > 100 | – | – | – | – | – | – | – | – | – | – | – | – | – | – | – | – | –
5 | C[C@@H]1CC[C@@]2(OC1)O[C@H]1C[C@H]3[C@@H]4CC=C5C[C@@H](O)CC[C@]5(C)[C@H]4CC[C@]3(C)[C@H]1[C@@H]2C [Compound 5, diosgenin] | – | > 100 | > 100 | > 100 | – | – | > 100 | > 100 | > 100 | > 100 | – | – | > 100 | – | 27.1 ± 1.18 | – | – | –
6 | C[C@@H]1CC[C@@]2(OC1)O[C@H]1C[C@H]3[C@@H]4CC=C5C[C@@H](O[C@@H]6O[C@H](CO)[C@@H](O)[C@H](O)[C@H]6O)CC[C@]5(C)[C@H]4CC[C@]3(C)[C@H]1[C@@H]2C [Compound 6, diosgenin-3-O-β-D-glucopyranoside] | – | > 100 | 79.2 ± 5.39 | > 100 | – | – | > 100 | > 100 | > 100 | > 100 | – | – | > 100 | – | 38.9 ± 2.78 | – | – | –
